According to patent US10040791B2, “Isoxazole derivative as mutant isocitrate dehydrogenase 1 inhibitor” (Daiichi Sankyo Company, Limited, priority 2014, dated 2018):

Experiments:
[1] = system: HT-1080 cells expressing IDH1R132C; assay: 2-HG production inhibitory activity using HT1080 cell; type: cell-based, human; settings: Homo sapiens, HT-1080; 2-HG production, HT1080 cells; read-out: Test Example 3 IC50
Experimental: Then, 100 μL of growth medium B was added to each well, further 25 μL of a solution of each compound diluted to a predetermined concentration with growth medium B was added to each well, and the cells were incubated at 37° C. for 2 days under 5% CO2. […] Then, 150 μL of ultrapure water was further added to each well, and the mixture was stirred by pipetting and stored at −20° C.
The preserved solutions were thawed at room temperature.

IDH1R132C = IDH1R132C (Homo sapiens (Human), UniProt O75874, R132C); assay: Inhibitory activity against IDH1R132C enzyme (NADPH detection, WST-8); type: biochemical; settings: 10 nM, residual NADPH detected with WST-8, read-out: Test Example 1 IDH1 R132C IC50
[2] = system: HT1080 xenografted mice (IDH1R132C); assay: 2-HG production inhibitory activity using HT1080 xenografted mice; type: in vivo, mouse; settings: 2-HG production, HT1080 xenografted mice; for response vs control in vivo at 75 mg/kg: Mus musculus, HT-1080, po, 6 h, read-out: Test Example 5 Ratio (%)
Procedure, shortened: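 Mice bearing HT1080 tumors received 75 mg/kg compound by oral gavage twice a day, three doses in total, at 10 mL/kg; vehicle-dosed mice were negative controls. Tumors were collected 6 h after the final dose, frozen, homogenized in methanol and centrifuged, and 2-HG was measured in the extracts.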

Sequence of IDH1R132C (O75874 whole entry R132C): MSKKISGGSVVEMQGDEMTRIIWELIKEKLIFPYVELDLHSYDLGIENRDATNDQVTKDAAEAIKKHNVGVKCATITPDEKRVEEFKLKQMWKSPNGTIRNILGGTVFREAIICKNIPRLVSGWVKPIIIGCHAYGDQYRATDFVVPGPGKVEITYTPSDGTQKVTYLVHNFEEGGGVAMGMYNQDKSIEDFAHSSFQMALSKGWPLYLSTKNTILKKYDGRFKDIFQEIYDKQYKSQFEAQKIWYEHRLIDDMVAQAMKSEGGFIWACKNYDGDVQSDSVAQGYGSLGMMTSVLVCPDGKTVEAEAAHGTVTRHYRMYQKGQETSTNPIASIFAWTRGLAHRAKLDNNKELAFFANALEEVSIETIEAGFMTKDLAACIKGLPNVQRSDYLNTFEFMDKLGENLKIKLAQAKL

IC50 [1] [nM]	IC50 (IDH1R132C) [nM]	Compound	response vs control in vivo at 75 mg/kg [2] [%]	Test Example 5 Ratio (%) [2] [%]
263	136	Cc1cn(C(=O)c2c(-c3c(F)cccc3Cl)noc2C(C)(C)F)c2cccc(/C=C/C(=O)O)c12 [Example 52, (2E)-3-(1-{[3-(2-Chloro-6-fluorophenyl)-5-(2-fluoropropan-2-yl)-1,2-oxazol-4-yl]carbonyl}-3-methyl-1H-indol-4-yl)prop-2-enoic acid]	71	–
38	149	C=CC(=O)N1CCC(c2onc(-c3c(Cl)cccc3Cl)c2C(=O)n2cc(C)c3c(/C=C/C(=O)O)cccc32)CC1 [Example 108]	58	–
56	117	Cc1cc(Cl)cc(Cl)c1-c1noc(C(C)(C)F)c1C(=O)n1cc(C)c2c(/C=C/C(=O)O)cccc21 [Example 59, (2E)-3-(1-{[3-(2,4-Dichloro-6-methylphenyl)-5-(2-fluoropropan-2-yl)-1,2-oxazol-4-yl]carbonyl}-3-methyl-1H-indol-4-yl)prop-2-enoic acid]	10	–
90	109	Cc1cn(C(=O)c2c(-c3c(F)cc(Cl)cc3F)noc2C(C)(C)F)c2cccc(/C=C/C(=O)O)c12 [Example 54, (2E)-3-(1-{[3-(4-Chloro-2,6-difluorophenyl)-5-(2-fluoropropan-2-yl)-1,2-oxazol-4-yl]carbonyl}-3-methyl-1H-indol-4-yl)prop-2-enoic acid]	–	16
118	175	COC1(c2onc(-c3c(Cl)cc(Cl)cc3Cl)c2C(=O)n2ccc3c(/C=C/C(=O)O)cccc32)CCC1 [Example 74, (2E)-3-(1-{[5-(1-Methoxycyclobutyl)-3-(2,4,6-trichlorophenyl)-1,2-oxazol-4-yl]carbonyl}-1H-indol-4-yl)prop-2-enoic acid]	20	–
3	81	C=CC(=O)N1CCC(c2onc(-c3c(C)cc(C)cc3C)c2C(=O)n2cc(C)c3c(/C=C/C(=O)O)cccc32)CC1 [Example 114]	12	–
62	125	Cc1cc(Cl)cc(C)c1-c1noc(C(C)(C)F)c1C(=O)n1cc(C)c2c(/C=C/C(=O)O)cccc21 [Example 55, (2E)-3-(1-{[3-(4-Chloro-2,6-dimethylphenyl)-5-(2-fluoropropan-2-yl)-1,2-oxazol-4-yl]carbonyl}-3-methyl-1H-indol-4-yl)prop-2-enoic acid]	15	–
57	159	CC(C)(C)c1onc(-c2c(Cl)cc(Cl)cc2Cl)c1C(=O)n1cc(F)c2c(/C=C/C(=O)O)cccc21 [Example 40, (2E)-3-(1-{[5-(tert-Butyl)-3-(2,4,6-trichlorophenyl)-1,2-oxazol-4-yl]carbonyl}-3-fluoro-1H-indol-4-yl)prop-2-enoic acid]	18	–
51	357	C=CC(=O)N1CCC(COC)(c2onc(-c3c(Cl)cc(Cl)cc3Cl)c2C(=O)n2ccc3c(/C=C/C(=O)O)cccc32)CC1 [Example 120]	31	–
3	91	C=CC(=O)N1CCC(c2onc(-c3cc(F)c(Cl)cc3Cl)c2C(=O)n2cc3c4c(cccc42)/C(=C/C(=O)O)CC3)CC1 [Example 128]	1	–
294	235	C=CC(=O)N1CCN(c2onc(-c3c(Cl)cccc3Cl)c2C(=O)n2ccc3c(/C=C/C(=O)O)cccc32)[C@H](C2CC2)C1 [Example 154, (2E)-3-[1-({5-[(2R)-4-Acryloyl-2-cyclopropylpiperazin-1-yl]-3-(2,6-dichlorophenyl)-1,2-oxazol-4-yl}carbonyl)-1H-indol-4-yl]prop-2-enoic acid]	45	–
45	243	C=CC(=O)N1CCC(c2onc(-c3c(C)cc(C)cc3C)c2C(=O)n2ccc3c(/C=C/C(=O)O)cccc32)CC1 [Example 109]	23	–
209	364	CC(C)(C)c1noc(-c2c(Cl)cc(Cl)cc2Cl)c1C(=O)n1ccc2c(/C=C/C(=O)O)cccc21 [Example 34, (2E)-3-(1-{[3-(tert-Butyl)-5-(2,4,6-trichlorophenyl)-1,2-oxazol-4-yl]carbonyl}-1H-indol-4-yl)prop-2-enoic acid]	55	–
7	93	C=CC(=O)N1CCC(c2onc(-c3c(Cl)cc(Cl)cc3Cl)c2C(=O)n2cc(C)c3c(/C=C/C(=O)O)cccc32)CC1 [Example 104]	8	–
12	115	C=CC(=O)N1CCC(c2onc(-c3c(Cl)cc(F)cc3Cl)c2C(=O)n2cc(C)c3c(/C=C/C(=O)O)cccc32)CC1 [Example 112]	15	–
178	179	C=CC(=O)N1CC2(CC2)N(c2onc(-c3c(Cl)cccc3OC)c2C(=O)n2ccc3c(/C=C/C(=O)O)cccc32)C[C@H]1C [Example 158, (2E)-3-[1-({5-[(6R)7-Acryloyl-6-methyl-4,7-diazaspiro[2.5]oct-4-yl]-3-(2-chloro-6-methoxyphenyl)-1,2-oxazol-4-yl}carbonyl)-1H-indol-4-yl]prop-2-enoic acid]	62	–
64	169	CC1(c2onc(-c3c(Cl)cc(Cl)cc3Cl)c2C(=O)n2cc3c4c(cccc42)/C(=C/C(=O)O)CC3)CC(F)(F)C1 [Example 19]	79	–
6	94	C=CC(=O)N1CCC(c2onc(-c3c(C)cc(Cl)cc3C)c2C(=O)n2cc(C)c3c(/C=C/C(=O)O)cccc32)CC1 [Example 122]	29	–
134	123	C=CC(=O)N1CCN(c2onc(-c3c(Cl)cccc3Cl)c2C(=O)n2ccc3c(/C=C/C(=O)O)cccc32)CC1 [Example 142, (2E)-3-(1-{[5-(4-Acryloylpiperazin-1-yl)-3-(2,6-dichlorophenyl)-1,2-oxazol-4-yl]carbonyl}-1H-indol-4-yl)prop-2-enoic acid]	56	–
31	163	Cc1cn(C(=O)c2c(-c3c(Cl)cc(Cl)cc3Cl)noc2C2(N(C)C)CCC2)c2cccc(/C=C/C(=O)O)c12 [Example 81, (2E)-3-(1-{[5-[1-(Dimethylamino)cyclobutyl]-3-(2,4,6-trichlorophenyl)-1,2-oxazol-4-yl]carbonyl}-3-methyl-1H-indol-4-yl)prop-2-enoic acid]	15	–
190	137	C=CC(=O)N1CCN(c2onc(-c3c(Cl)cccc3Cl)c2C(=O)n2ccc3c(/C=C/C(=O)O)cccc32)[C@H](C)C1 [Example 141, (2E)-3-[1-({5-[(2R)-4-Acryloyl-2-methylpiperazin-1-yl]-3-(2,6-dichlorophenyl)-1,2-oxazol-4-yl}carbonyl)-1H-indol-4-yl]prop-2-enoic acid]	36	–
